What was measured:
Wnt pathway [1] = experiment: Western blot of Wnt pathway proteins in human myotubes after drug administration; format: cell-based; conditions: for active β-catenin: myotubes
Method: (§1) To obtain primary myoblasts, muscle biopsies were processed and cultured in monolayer according to the method described by Askanas (Neurology, 1975, 25, 58-67). To isolate the pure population of myoblasts and CD56-negative cells (CD56-), the protocol described previously (Jaka et al., Expert Reviews in Molecular Medicine, 2017, 19, e2) was used, using immunomagnetic separation based on the early presence of the surface marker CD56 (Miltenyi Biotec, 130-050-401).
(§2) Myoblasts were cultured in proliferation medium (DMEM, M-199, Insulin, Glutamine and penicillin-streptomycin) with 10% FBS and growth factors at 37° C. in 5% CO2 air incubator. When myoblasts reached confluence, the FBS concentration was reduced to 2% and growth factors were removed from the medium, promoting fusion and production of myotubes.
(§3) VP0.7 was provided by Dr. Ana Martínez (from The Center for Biological Research, CSIC). It was administered at 1.2 μM, whereas LiCl (Sigma-Aldrich, L7026) was used for comparative purposes at a final concentration of 10 mM. VP0.7 and LiCl were administered at the above referred concentrations to myotubes at eight days of differentiation, and VP0.7 also to skin fibroblasts and to CD56-cells. Negative controls, in the case of VP0.7, were performed with DMSO (Fisher Scientific, BP-231). At 48 hours after drug administration, RNA and proteins were extracted.
(§4) Protein collection from muscle samples and cell cultures, as well as Western blot procedure, were performed as previously described (Jaka et al., Expert Reviews in Molecular Medicine, 2017, 19, e2).
We proceeded to analyse the expression of the GSK3β protein, as well as its downstream effect on the Wnt pathway in myotubes from controls and patients after drug administration. […] As a control assay, lithium was administered and an increase in active β-catenin was verified (FIG. 2C).

GSK3β = conditions: low dose, Whitley et al. 2020, cited from earlier work
GSK3 [2] = conditions: low therapeutic dose 0.5 mM, Kurgan et al. 2019; cited from earlier work
Akt/mTOR pathway = experiment: Western blot of Akt/mTOR pathway proteins in human myotubes; format: cell-based
Method: as §1, §2, §3, §4
Furthermore, downstream of the mTOR pathway, the p70S6K and RPS6 proteins were analysed. After administration of VP0.7, the expression of total p70S6K, its phosphorylation (Thr421/Ser424 and Thr389), as well as the levels of phosphorylation of the RPS6 protein (Ser235/Ser236) increased in the patient's sample. In the control, the effect observed after the treatments is very slight (FIG. 3B).
For comparative purposes, LiCl was also administered in control and patient's myotubes and the phosphorylation of p70S6K and RPS6 proteins were also tested. The results are depicted in FIG. 4.

FRBZ gene, β1D integrin = conditions: LiCl treatment, cited from earlier work
[3] = test system: CAPN3, FOS, ANOS1 and ITGB1BP2 genes; experiment: Quantitative real-time PCR of deregulated genes in LGMDR1 myotubes; format: cell-based, human; conditions: VP0.7 1.2 μM, 48 h
Method: as §3
RNA extraction from primary myoblast/myotubes was performed with an RNeasy Mini Kit (Qiagen). In the case of the muscle biopsies, which were snap frozen and stored at −80° C. until use, total RNA was obtained using an RNA-Plus Kit (QBiogene).
The isolated RNA was reverse-transcribed to first-strand complementary DNA (cDNA) in a final volume of 50 μl using a High Capacity cDNA Reverse Transcription Kit (Applied Biosystems), according to the manufacturer's instructions. The expression levels of CAPN3, FOS, ITGB1BP2, ANOS1 and GAPDH genes in the samples were assessed by real-time quantitative PCR with TaqMan probes (Table Il below) using the ‘CFX384 Real-Time PCR Detection System’ (Bio-Rad).
On the other hand, in previous studies we had already described that activating the Wnt pathway through the silencing of the FRZB gene or with treatment with lithium, the expression of some altered genes in the muscle of patients was recovered (Jaka et al., Expert Reviews in Molecular Medicine, 2017, 19, e2; Casas-Fraile et al., Orphanet Journal of Rare Diseases, 2020, 15(1), 119). Thus, their expression was analysed after administering VP0.7.

GSK3 [4] = target: GSK3 (Homo sapiens, UniProt P49841); conditions: highly selective and allosteric modulator; Luna-Medina 2007, Palomo 2011; cited from earlier work
Sequence of GSK3 (Homo sapiens, UniProt P49841) (P49841 whole entry): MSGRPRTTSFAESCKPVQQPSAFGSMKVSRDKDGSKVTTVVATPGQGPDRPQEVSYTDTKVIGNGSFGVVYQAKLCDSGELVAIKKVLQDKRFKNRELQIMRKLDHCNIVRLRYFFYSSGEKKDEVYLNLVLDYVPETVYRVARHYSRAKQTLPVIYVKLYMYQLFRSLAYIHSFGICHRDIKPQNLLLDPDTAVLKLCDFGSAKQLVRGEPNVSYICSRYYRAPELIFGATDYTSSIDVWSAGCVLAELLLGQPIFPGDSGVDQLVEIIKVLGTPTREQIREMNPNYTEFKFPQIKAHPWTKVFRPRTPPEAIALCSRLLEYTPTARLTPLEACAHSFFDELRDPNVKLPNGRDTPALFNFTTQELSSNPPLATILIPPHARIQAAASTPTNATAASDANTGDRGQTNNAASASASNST

mTOR pathway [5] = experiment: Western blot of mTOR pathway protein in skin fibroblasts; format: cell-based, human; conditions: VP0.7 1.2 μM, 48 h
Method: (§5) Skin fibroblasts from healthy controls and from LGMDR1 patients were provided by Dr. Ana Aiastui (Biodonostia Health Research Institute, Cell Culture and Histology Platform). Cells were cultured in Dulbecco's modified Eagle's medium (DMEM, Gibco, 41966-029) supplemented with 10% FBS (Gibco, 10270-106) and 1% penicillin-streptomycin (Gibco, 15140-122) at 37° C. in a 5% CO2 air incubator. Human fibroblasts were cultured at a density of 4×10^4 cells/ml.
as §3, §4

mTOR pathway [6] = experiment: Western blot of mTOR pathway proteins in CD56- cells; format: cell-based, human; conditions: VP0.7 1.2 μM, 48 h
Description: as §1, §3, §4

Wnt pathway [7] = experiment: Western blot of Wnt pathway proteins in skin fibroblasts; format: cell-based, human; conditions: VP0.7 1.2 μM, 48 h
Method: as §5, §3, §4

integrin β1D and melusin = experiment: Western blot of costamere structural proteins in human myotubes; format: cell-based; conditions: VP0.7 1.2 μM, 48 h
Method: as §3, §4
Likewise, the expression of some of the structural proteins that are part of the costamere, whose expression is altered in LGMDR1 patients, was analysed. After drug administration, an increase in integrin β1D and melusin was also observed (FIG. 2E).

Wnt pathway [8] = experiment: Western blot of Wnt pathway proteins in CD56- cells; format: cell-based, human; conditions: VP0.7 1.2 μM, 48 h
Description: as §1, §3, §4

[9] = LiCl 10 mM, drug administration +, myotubes, control 09-23
[10] = LiCl 10 mM, drug administration +, myotubes, control 13-07
[11] = LiCl 10 mM, drug administration +, myotubes, patient 09-21
[12] = LiCl 10 mM, drug administration +, myotubes, patient 09-24
[13] = LiCl 10 mM, drug administration +, myotubes, patient 09-25
[14] = VP0.7 1.2 μM, 48 h, patient's myotubes
[15] = VP0.7 1.2 μM, 48 h, patient's sample, myotubes
[16] = VP0.7 1.2 μM, myotubes, control 13-05, relative to the same sample without treatment
[17] = VP0.7 1.2 μM, myotubes, patient 09-25, relative to the same sample without treatment

SMILES: [Cl-].[Li+] [LiCl, reference compound]
- active β-catenin (Wnt pathway [1]; LiCl 10 mM, 48 h, control assay): increase
- inhibition of GSK3β (GSK3β): effective in inhibiting
- fatigue resistance in some muscles (GSK3β; via NFAT activation): enhances
- inhibition of GSK3 (GSK3 [2]): inhibit
- myoblast fusion (GSK3 [2]): augment
- proteins involved in the mTOR pathway and their phosphorylation forms (Akt/mTOR pathway; LiCl 10 mM, 48 h, control and patient's myotubes): did not provide any increase
- P-RPS6 (S235-S236) (Akt/mTOR pathway; [9]): 3.8
- P-p70S6K (T421-S424) (Akt/mTOR pathway; [9]): 0.78
- P-RPS6 (S235-S236) (Akt/mTOR pathway; [10]): 3
- P-p70S6K (T421-S424) (Akt/mTOR pathway; [10]): 0.7
- P-RPS6 (S235-S236) (Akt/mTOR pathway; [11]): 1.5
- P-p70S6K (T421-S424) (Akt/mTOR pathway; [11]): 0.5
- P-RPS6 (S235-S236) (Akt/mTOR pathway; [12]): 3
- P-p70S6K (T421-S424) (Akt/mTOR pathway; [12]): 1.4
- P-RPS6 (S235-S236) (Akt/mTOR pathway; [13]): 2.5
- P-p70S6K (T421-S424) (Akt/mTOR pathway; [13]): 0.65
- expression of the FRBZ gene (FRBZ gene, β1D integrin; Jaka et al. 2017): lower levels
- β1D adult isoform of the integrin (FRBZ gene, β1D integrin; primary myotubes): higher levels

SMILES: CCCCCCCCCCCC(=O)NNC(=O)c1c(O)c2ccccc2n(CC)c1=O [VP0.7, N′-dodecanoyl-1-ethyl-4-hydroxy-2-oxo-1,2-dihydroquinoline-3-carbohydrazide]
- expression of ANOS1 [3]: increase
- expression of CAPN3 [3]: increase
- expression of FOS [3]: increase
- expression of ITGB1BP2 [3]: increase
- total β-catenin expression (Wnt pathway [1]; VP0.7 1.2 μM, 48 h, myotubes day 8 of differentiation, controls and LGMDR1 patients): increase
- active β-catenin (Wnt pathway [1]; VP0.7 1.2 μM, 48 h, controls and LGMDR1 patients): increase
- inhibition of GSK3β kinase (Wnt pathway [1]; myotubes after drug administration): effective inhibition
- inhibition of GSK3 (GSK3 [4]): reversibly inhibits
- phosphorylation of RPS6 (mTOR pathway [5]): very slight increase
- mTOR (mTOR pathway [6]): no differences
- phosphorylation of RPS6 (mTOR pathway [6]): no differences
- phosphorylation of p70S6K (mTOR pathway [6]): no differences
- active form of β-catenin (Wnt pathway [7]): did not show an increase
- phosphorylation of GSK3β(Ser9) (Wnt pathway [7]): did not show an increase
- β-catenin (Wnt pathway [7]): did not show an increase
- integrin β1D (integrin β1D and melusin): increase
- melusin (integrin β1D and melusin): increase
- active form of β-catenin (Wnt pathway [8]): no significant alteration
- amount of total β-catenin (Wnt pathway [8]): no significant alteration
- effect on p70S6K and RPS6 expression/phosphorylation (Akt/mTOR pathway; VP0.7 1.2 μM, 48 h, control myotubes): very slight
- phosphorylation of mTOR (Ser2448) (Akt/mTOR pathway; [14]): significant increase
- phosphorylation of mTOR (Ser2481) (Akt/mTOR pathway; [14]): significant increase
- total mTOR (Akt/mTOR pathway; [14]): no significant changes
- expression of total p70S6K (Akt/mTOR pathway; [15]): increased
- p70S6K phosphorylation (Thr389) (Akt/mTOR pathway; [15]): increased
- p70S6K phosphorylation (Thr421/Ser424) (Akt/mTOR pathway; [15]): increased
- phosphorylation of the RPS6 protein (Ser235/Ser236) (Akt/mTOR pathway; [15]): increased
- P-p70S6K (T421-S424) (Akt/mTOR pathway; VP0.7 1.2 μM, myotubes, control 13-05, protein expression value relative to the same sample without treatment): 1
- P-RPS6 (S235-S236) (Akt/mTOR pathway; [16]): 1.1
- P-p70S6K (T389) (Akt/mTOR pathway; [16]): 0.94
- P-p70S6K (T421-S424) (Akt/mTOR pathway; VP0.7 1.2 μM, myotubes, patient 09-25, protein expression value relative to the same sample without treatment): 1.6
- P-RPS6 (S235-S236) (Akt/mTOR pathway; [17]): 2.8
- P-p70S6K (T389) (Akt/mTOR pathway; [17]): 1.6

Reference: patent publication US20240277692A1, “1,2-DIHYDROQUINOLINE-2-ONES FOR THEIR USE IN THE TREATMENT OF LIMB-GIRDLE MUSCULAR DYSTROPHY” (CONSEJO SUPERIOR DE INVESTIGACIONES CIENTÍFICAS, priority 2021, published 2024)
